According to patent publication US20240400591A1 (Jacobio Pharmaceuticals Co., Ltd., priority 2021, published 2024):
Like-named read-outs stand apart in the source and are kept apart here.

Legend:
[1] = biological target: T1, His-p53 Y220C (94-294) protein (Homo sapiens, UniProt P04637, Y220C); assay: In vitro DNA binding assay (HTRF); format: biochemical; conditions: % activation normalized to 2 μM Ref-1a high control
T1 construct: His-p53 Y220C (94-294) protein

[2] = tested on: NUGC-3_P53_Luc single clonal cell line (p53 Y220C); assay: Reporter gene assay (p53 RE luciferase); format: cell-based
Summary of the method: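 NUGC-3 cells stably carrying a p53 RE-driven luc2P reporter, washed free of phenol red, exposed to compound for 6 h at 37 °C; luminescence read. Activity normalised between DMSO (low) and Ref-1a 10 μM (high) controls; EC50 from 4-parameter logistic fit or Excel as concentration giving 50% activity.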

NUGC3 (P53 Y220C) = assay: Cell viability assay (CellTiter-Glo, 6 days), NUGC3; format: cell-based
Summary of the method: (§1)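 Cells seeded overnight at 37 °C, then exposed to compounds in medium for 6 days. Viability read by CellTiter-Glo luminescence, normalized to DMSO cell wells (high) and medium-only wells (low); IC50 taken as concentration giving 50% viability from 4-parameter logistic fit.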

NUGC4 (P53 WT) = assay: Cell viability assay (CellTiter-Glo, 6 days), NUGC4; format: cell-based
Summary of the method: as §1

[3] = Homo sapiens, NUGC-3, luciferase reporter, 6 hours, normalized to Ref-1a (10 μM) high control, read-out: p53(Y220C)_NUGC-3 EC50
[4] = Homo sapiens, NUGC-3, 144 h, cell viability, 6 days, CellTiter-Glo, read-out: NUGC3 (P53 Y220C) IC50
[5] = Homo sapiens, NUGC-4, 144 h, cell viability, 6 days, CellTiter-Glo, read-out: NUGC4 (P53 WT) IC50
[6] = luciferase reporter, 6 hours, normalized to Ref-1a (10 μM) high control, read-out: p53(Y220C)_NUGC-3 EC50
[7] = cell viability, 6 days, CellTiter-Glo, read-out: NUGC3 (P53 Y220C) IC50
[8] = cell viability, 6 days, CellTiter-Glo, read-out: NUGC4 (P53 WT) IC50

Structure (SMILES)	EC50 [1] [nM]	EC50 [2, 3] [µM]	IC50 (NUGC3 (P53 Y220C); [4]) [µM]	IC50 (NUGC4 (P53 WT); [5]) [µM]	EC50 ([2]; Homo sapiens, NUGC-3, 6 h, read-out: p53(Y220C)_NUGC-3 EC50 (μM)) [µM]	IC50 (NUGC3 (P53 Y220C); Homo sapiens, NUGC-3, 144 h, read-out: NUGC3 (P53 Y220C) IC50 (μM)) [µM]	IC50 (NUGC4 (P53 WT); Homo sapiens, NUGC-4, 144 h, read-out: NUGC4 (P53 WT) IC50 (μM)) [µM]	EC50 [2, 6] [µM]	IC50 (NUGC3 (P53 Y220C); [7]) [µM]	IC50 (NUGC4 (P53 WT); [8]) [µM]	EC50 ([2]; Homo sapiens, NUGC-3, 6 h, luciferase reporter, 6 hours, normalized to Ref-1a (10 μM) high control, read-out: p53(Y220C)_NUGC-3 EC50) [µM]
CN1CC[C@@H](Nc2cccc3c(CC(F)(F)F)c(C#CCNC(=O)c4ccn(C(C)(C)C)c4)sc23)[C@@H](F)C1 (racemic) [Example 130, 1-tert-butyl-N-[3-[7-[((Z)-3-fluoro-1-methyl-4-piperidyl)amino]-3-(2,2,2-trifluoroethyl)benzothiophen-2-yl]prop-2-ynyl]pyrrole-3-carboxamide]	117	0.36	3.55	6.85	–	–	–	–	–	–	–
COc1cc(P2(=O)CCCC2)ccc1NCC#Cc1sc2c(N[C@@H]3CCN(C)C[C@@H]3F)cccc2c1CC(F)(F)F [Example 117, 1-(4-((3-(7-(((3S,4R)-3-fluoro-1-methylpiperidin-4-yl)amino)-3-(2,2,2-trifluoroethyl)benzo[b]thiophen-2-yl)prop-2-yn-1-yl)amino)-3-methoxyphenyl)phospholane 1-oxide]	34	–	–	–	0.17	0.93	8.54	–	–	–	–
COc1cc(P(C)(C)=O)ccc1NCC#Cc1sc2c(N[C@@H]3CCN(C4CC5CCC(C4)O5)C[C@@H]3F)cccc2c1CC(F)(F)F (stereo partly drawn) [Example 180, (4-((3-(7-(((3S,4R)-1-(8-oxabicyclo[3.2.1]octan-3-yl)-3-fluoropiperidin-4-yl)amino)-3-(2,2,2-trifluoroethyl)benzo[b]thiophen-2-yl)prop-2-yn-1-yl)amino)-3-methoxyphenyl)dimethylphosphine oxide]	50	0.11	0.91	5.89	–	–	–	–	–	–	–
COc1nc(P(C)(C)=O)ncc1NCC#Cc1sc2c(N[C@@H]3CCN(C)C[C@@H]3F)cccc2c1CC(F)(F)F [Example 208, (5-((3-(7-(((3S,4R)-3-fluoro-1-methylpiperidin-4-yl)amino)-3-(2,2,2-trifluoroethyl)benzo[b]thiophen-2-yl)prop-2-yn-1-yl)amino)-4-methoxypyrimidin-2-yl)dimethylphosphine oxide]	43	0.71	2.13	13.7	–	–	–	–	–	–	–
CNC(=O)c1cc(OC)c(NCC#Cc2sc3c(NC4CCN(C)CC4F)cccc3c2CC(F)(F)F)cn1 (stereo not drawn) [Example 60, 5-((3-(3-(2,2,2-trifluoroethyl)-7-(((Z)-3-fluoro-1-methylpiperidin-4-yl)amino)benzo[b]thiophen-2-yl)prop-2-yn-1-yl)amino)-4-methoxy-N-methylpicolinamide]	72	–	–	–	–	–	–	0.47	1.95	6.1	–
CCN1CC[C@@H](Nc2cccc3c(CC(F)(F)F)c(C#CCNc4ccc(P(C)(C)=O)cc4OC)sc23)[C@@H](F)C1 [Example 135, (4-((3-(7-(((3S,4R)-1-ethyl-3-fluoropiperidin-4-yl)amino)-3-(2,2,2-trifluoroethyl)benzo[b]thiophen-2-yl)prop-2-yn-1-yl)amino)-3-methoxyphenyl)dimethylphosphine oxide]	26	–	1.16	3.62	–	–	–	–	–	–	0.04
COCC(O)CNC(=O)c1ccc(NCC#Cc2sc3c(NC4CCN(C)CC4F)cccc3c2CC(F)(F)F)c(OC)c1 (stereo not drawn) [Example 59, 4-((3-(7-(((Z)-3-fluoro-1-methylpiperidin-4-yl)amino)-3-(2,2,2-trifluoroethyl)benzo[b]thiophen-2-yl)prop-2-yn-1-yl)amino)-N-(2-hydroxy-3-methoxypropyl)-3-methoxybenzamide]	73	–	–	–	–	–	–	0.15	1.44	9.82	–
CN1CC[C@@H](Nc2cccc3c(CC(F)(F)F)c(C#CCNc4ccc(P(C)(C)=O)c5ncsc45)sc23)[C@@H](F)C1 [Example 220, (7-((3-(7-(((3S,4R)-3-fluoro-1-methylpiperidin-4-yl)amino)-3-(2,2,2-trifluoroethyl)benzo[b]thiophen-2-yl)prop-2-yn-1-yl)amino)benzo[d]thiazol-4-yl)dimethylphosphine oxide]	41	0.15	0.25	8.11	–	–	–	–	–	–	–
CNC(=O)c1cc(NCC#Cc2sc3c(NC4CCN(C)CC4F)cccc3c2CC(F)(F)F)c(OC)cc1P(C)(C)=O (racemic) [Example 109, 2-dimethylphosphoryl-5-[3-[7-[((Z)-3-fluoro-1-methyl-4-piperidyl)amino]-3-(2,2,2-trifluoroethyl)benzothiophen-2-yl]prop-2-ynylamino]-4-methoxy-N-methyl-benzamide]	33	0.12	1.19	47.7	–	–	–	–	–	–	–
COc1cc([S@@](C)(=N)=O)ccc1NCC#Cc1sc2c(N[C@@H]3CCN(C)C[C@@H]3F)cccc2c1CC(F)(F)F [Example 226, (S)-(4-((3-(7-(((3S,4R)-3-fluoro-1-methylpiperidin-4-yl)amino)-3-(2,2,2-trifluoroethyl)benzo[b]thiophen-2-yl)prop-2-yn-1-yl)amino)-3-methoxyphenyl)(imino)(methyl)-16-sulfanone]	39	–	–	–	–	–	–	0.05	0.32	19.4	–

Continued, in another order:

EC50 [1] [nM]	Structure (SMILES)	EC50 [2, 3] [µM]	IC50 (NUGC3 (P53 Y220C); [4]) [µM]	IC50 (NUGC4 (P53 WT); [5]) [µM]	EC50 ([2]; Homo sapiens, NUGC-3, 6 h, read-out: p53(Y220C)_NUGC-3 EC50 (μM)) [µM]	IC50 (NUGC3 (P53 Y220C); Homo sapiens, NUGC-3, 144 h, read-out: NUGC3 (P53 Y220C) IC50 (μM)) [µM]	IC50 (NUGC4 (P53 WT); Homo sapiens, NUGC-4, 144 h, read-out: NUGC4 (P53 WT) IC50 (μM)) [µM]	EC50 [2, 6] [µM]	IC50 (NUGC3 (P53 Y220C); [7]) [µM]	IC50 (NUGC4 (P53 WT); [8]) [µM]	EC50 ([2]; Homo sapiens, NUGC-3, 6 h, luciferase reporter, 6 hours, normalized to Ref-1a (10 μM) high control, read-out: p53(Y220C)_NUGC-3 EC50) [µM]
33	COc1cc(P(C)(C)=O)ccc1NCC#Cc1sc2c(NC3C(C)CN(C)CC3C)cccc2c1CC(F)(F)F (stereo not drawn) [Example 131, (3-methoxy-4-((3-(3-(2,2,2-trifluoroethyl)-7-(((Z)-1,3,5-trimethylpiperidin-4-yl)amino)benzo[b]thiophen-2-yl)prop-2-yn-1-yl)amino)phenyl)dimethylphosphine oxide]	0.07	0.66	2.54	–	–	–	–	–	–	–
46	CN1CCC(Nc2cccc3c(CC(F)(F)F)c(C#CCNc4ccc(P(C)(C)=O)cc4OC(F)(F)F)sc23)C(F)C1 (stereo not drawn) [Example 65, (4-((3-(7-(((Z)-3-fluoro-1-methylpiperidin-4-yl)amino)-3-(2,2,2-trifluoroethyl)benzo[b]thiophen-2-yl)prop-2-yn-1-yl)amino)-3-(trifluoromethoxy)phenyl)dimethylphosphine oxide]	–	–	–	–	–	–	0.12	1.56	10	–
47	COc1cc(P(C)(C)=O)ncc1NCC#Cc1sc2c(N[C@@H]3CCN(C)C[C@@H]3F)cccc2c1CC(F)(F)F [Example 92, (5-((3-(7-(((3S,4R)-3-fluoro-1-methylpiperidin-4-yl)amino)-3-(2,2,2-trifluoroethyl)benzo[b]thiophen-2-yl)prop-2-yn-1-yl)amino)-4-methoxypyridin-2-yl)dimethylphosphine oxide]	0.18	0.99	13.4	–	–	–	–	–	–	–
65	COc1cc(P(C)(C)=O)ccc1NCC#Cc1sc2c(NC3CCN(CCCF)CC3)cccc2c1CC(F)(F)F [Example 205, (4-((3-(7-((1-(3-fluoropropyl)piperidin-4-yl)amino)-3-(2,2,2-trifluoroethyl)benzo[b]thiophen-2-yl)prop-2-yn-1-yl)amino)-3-methoxyphenyl)dimethylphosphine oxide]	0.55	1.32	4.1	–	–	–	–	–	–	–
67	COc1cc(P(C)(C)=O)ccc1NCC#Cc1sc2c(NC3CCN(C4CCOCC4)CC3)cccc2c1CC(F)(F)F [Example 154, (3-methoxy-4-((3-(7-((1-(tetrahydro-2H-pyran-4-yl)piperidin-4-yl)amino)-3-(2,2,2-trifluoroethyl)benzo[b]thiophen-2-yl)prop-2-yn-1-yl)amino)phenyl)dimethylphosphine oxide]	0.41	1.89	4.19	–	–	–	–	–	–	–
127	COc1cc(P(C)(C)=O)ccc1NCC#Cc1sc2c(N[C@@H]3CCN(C4CC4)C[C@@H]3F)cccc2c1CC(F)(F)F (racemic) [Example 74, (4-((3-(7-(((Z)-1-cyclopropyl-3-fluoropiperidin-4-yl)amino)-3-(2,2,2-trifluoroethyl)benzo[b]thiophen-2-yl)prop-2-yn-1-yl)amino)-3-methoxyphenyl)dimethylphosphine oxide]	0.25	2.05	2.73	–	–	–	–	–	–	–
64	COc1cc(P(C)(C)=O)ccc1NCC#Cc1sc2c(NC3CCN(CC4CC4)C[C@@H]3F)cccc2c1CC(F)(F)F (mixture of isomers) [Example 102, (4-((3-(7-(((Z)-1-(cyclopropylmethyl)-3-fluoropiperidin-4-yl)amino)-3-(2,2,2-trifluoroethyl)benzo[b]thiophen-2-yl)prop-2-yn-1-yl)amino)-3-methoxyphenyl)dimethylphosphine oxide]	0.11	0.81	1.92	–	–	–	–	–	–	–
58	COc1cc(P(C)(C)=O)ccc1NCC#Cc1sc2c(NC3CC4CN(C)CC4C3)cccc2c1CC(F)(F)F (stereo not drawn) [Example 182]	0.48	2.03	3.74	–	–	–	–	–	–	–
